Among the data in patent US20240317727A1 (Duke University, priority 2018, published 2024) are IC50 and ΔTm values, retold here.

A word on the IC50: it is the concentration that inhibits the measured activity by half. In general, ΔTm refers to the change in melting temperature against a reference sample.

Molecules are shown by their SMILES. Where two headings read alike, the source gives them in different places.

The test system of test [1] is C4-2 prostate cancer cells. Nature of the test: C4-2 cell proliferation, Cell Titre Glo. The format is cell-based. Particulars: Homo sapiens, 48-hour period, 9-point dilution series, read-out: Cell Viability IC50. As for the experimental part: Next, cell viability of C4-2 prostate cancer cells was determined. C4-2 prostate cancer cells were grown in RMPI-1640 (no L-glutamine, Gibco 21870076) supplemented with 10% fetal bovine […] (non-heat-inactivated, Cytiva Hyclone SH30071.03). […] A 9-point dilution series was used to assess the ability of each compound to inhibit the growth of C4-2 prostate cancer cells over a 48-hour period, as compared to negative control solvent, DMSO. Cell proliferation was measured by the Cell Titre Glo assay using 384 well microtiter plate reader to quantitate luminescence. The IC50 was determined from the values obtained.

The target in test [2] is T1, purified recombinant human HSF1 (HSF1 DNA binding domain) (Homo sapiens, UniProt Q00613).
T1 sequence (Q00613 15-120): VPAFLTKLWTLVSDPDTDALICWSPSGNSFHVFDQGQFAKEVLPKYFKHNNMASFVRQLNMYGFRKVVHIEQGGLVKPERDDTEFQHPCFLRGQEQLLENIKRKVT
Nature of the test: Melting temperature of HSF1 DBD with HSF1 degrader compounds (Sypro orange). Particulars: read-out: ΔTm (° C.). As for the experimental part:
The melting temperature (ΔTm) for purified recombinant human HSF1 (HSF1 DNA binding domain) was determined in the presence of HSF1 degrader compounds shown in Table 5 and compared to the solvent DMSO. Sypro orange dye was added to the HSF1 DBD (5 micromolar final concentration) in buffer, mixed and distributed to wells in 384 well microtiter plates. HSF1 degrader compound (12.5 micromolar) or DMSO solvent was added to three replicate wells per compound concentration, mixed and plates loaded into a Quant Studio thermnocycler and run on a temperature gradient from 25° C. to 85° C. with increments of 0.5° C. steps. Melting curves were obtained and analyzed using the ThermnoFisher Shift Software 1.4 fitted with a Boltzmann equation to determine the change in melting temperature of the protein in the presence of DMSO as compared to compound. The difference in the melting temperature under these two conditions was assigned as the change in melting temperature of ΔTm.

Test [3] has as its target T2, recombinant HSF1 DNA-binding domain (DBD) (Homo sapiens, UniProt Q00613).
T2 sequence (Q00613 15-120): T1 sequence (Q00613 15-120)
The experiment in a line: Differential Scanning Fluorimetry (DSF), HSF1 DBD melting temperature. Particulars: 5 μM HSF1 DBD, 25PM Compound, positive = stabilizes, negative = destabilizes HSF1. A general note: Differential scanning fluorimetry follows unfolding on heating by fluorescence.

The mark [4] stands for this setting: 12.5 micromolar compound, 5 micromolar HSF1 DBD, compared to DMSO.

For `N#Cc1ccc(NC(=O)Nc2ccc(F)cc2)cc1C(F)(F)F` [Compound 254, 1-(4-cyano-3-(trifluoromethyl)phenyl)-3-(4-fluorophenyl)urea], the 50% inhibitory concentration (IC50) in test [1] was 4.02 µM. In addition, in test [2], the shift in melting temperature (ΔTm) at 12.5 µM came to 1.84 °C.

`N#Cc1ccc(NC(=O)Nc2ccc3c(c2)S(=O)(=O)C=C3)cc1OCCN1CCOCC1` [Compound 295, 1-(4-cyano-3-(2-morpholinoethoxy)phenyl)-3-(1,1-dioxidobenzo[b]thiophen-6-yl)urea]: the concentration for half-maximal inhibition (IC50) in test [1] was more than 10 µM. Moreover, the thermal shift (ΔTm) at 12.5 µM in test [2] was -0.03 °C.

`CC(C)(C)c1cc(NC(=O)Nc2ccc3c(c2)S(=O)(=O)C=C3)ccc1C#N` [Compound 264, 1-(3-(tert-butyl)-4-cyanophenyl)-3-(1,1-dioxidobenzo[b]thiophen-6-yl)urea]: in test [1], the IC50 is 2.65 µM. For the same compound, the ΔTm at 12.5 µM in test [2] (setting [4]) came out at 1.27 °C.

For the compound `N#Cc1ccc(NC(=O)Nc2ccc3occc3c2)cc1` [Compound 246, 1-(benzofuran-5-yl)-3-(4-cyanophenyl)urea], the IC50 in test [1] is more than 10 µM. Also, the ΔTm at 12.5 µM in test [2] (setting [4]) worked out at 3.23 °C.

Turning to `N#Cc1cnc(NC(=O)Nc2ccc3c(c2)S(=O)(=O)C=C3)nc1` [Compound 270, 1-(5-cyanopyrimidin-2-yl)-3-(1,1-dioxidobenzo[b]thiophen-6-yl)urea], the IC50 in test [1] is more than 10 µM. For the same compound, the ΔTm at 12.5 µM in test [2] (setting [4]) is 0.01 °C.

`N#Cc1ccc(NC(=O)Nc2ccc3c(c2)CCCS3(=O)=O)cc1` [Compound 282, 1-(4-cyanophenyl)-3-(1,1-dioxidothiochroman-6-yl)urea]: the ΔTm at 12.5 µM in test [2] (setting [4]) is -0.97 °C.

For `CN(C)CCc1ccc(NC(=O)Nc2ccc(C#N)cc2)cc1S(=O)(=O)C(F)(F)F` [Compound 287, 1-(4-cyanophenyl)-3-(4-(2-(dimethylamino)ethyl)-3-((trifluoromethyl)sulfonyl)phenyl)urea], the half-maximal inhibitory concentration (IC50) in test [1] was more than 10 µM.

In the case of `N#Cc1cccc(NC(=O)Nc2ccc(Cl)c([N+](=O)[O-])c2)c1` [Compound 238, 1-(4-chloro-3-nitrophenyl)-3-(3-cyanophenyl)urea], the IC50 in test [1] was 3.1 µM. The ΔTm at 12.5 µM in test [2] (setting [4]) came to 3.49 °C.

Turning to `N#Cc1ccc(NC(=O)Nc2ccc3c(c2)C=CS3(=O)=O)o1` [Compound 271, 1-(5-cyanofuran-2-yl)-3-(1,1-dioxidobenzo[b]thiophen-5-yl)urea], the IC50 in test [1] was more than 10 µM. In addition, the shift in melting temperature (ΔTm) at 12.5 µM in test [2] (setting [4]) amounted to 0.02 °C.

`N#CC1CCC(NC(=O)Nc2ccc(Cl)c(C(F)(F)F)c2)CC1` (stereo not drawn) [Compound 300, 1-(4-chloro-3-(trifluoromethyl)phenyl)-3-(4-cyanocyclohexyl)urea]: the IC50 in test [1] is more than 10 µM. For the same compound, the thermal shift (ΔTm) at 12.5 µM in test [2] is -0.73 °C.

In the case of `N#Cc1ncc(NC(=O)Nc2ccc3c(c2)S(=O)(=O)C=C3)cn1` [Compound 269], in test [1], the IC50 is more than 10 µM. The thermal shift (ΔTm) at 12.5 µM in test [2] (setting [4]) stood at 0.77 °C.

With `COc1cc(NC(=O)Nc2ccc3nsnc3c2)ccc1C#N` [Compound 250, 1-(benzo[c][1,2,5]thiadiazol-5-yl)-3-(4-cyano-3-methoxyphenyl)urea], the half-inhibitory concentration (IC50) in test [1] was more than 10 µM. Further, the shift in melting temperature (ΔTm) at 12.5 µM in test [2] (setting [4]) is 1.3 °C.

On to `N#Cc1ccc(NC(=O)Nc2ccc3c(c2)C(=O)CCC3)cc1` [Compound 278, 1-(4-cyanophenyl)-3-(8-oxo-5,6,7,8-tetrahydronaphthalen-2-yl)urea], for which, in test [2] (setting [4]), the ΔTm at 12.5 µM is -0.95 °C.

As for `N#Cc1ccc(NC(=O)Nc2ccc(F)cc2)cc1` [Compound 255, 1-(4-cyanophenyl)-3-(4-fluorophenyl)urea], in test [1], the IC50 is more than 10 µM. In addition, the ΔTm at 12.5 µM in test [2] (setting [4]) turned out to be 2.22 °C.

Regarding `N#Cc1cccc(NC(=O)Nc2ccc3c(c2)S(=O)(=O)C=C3)n1` [Compound 267, 1-(6-cyanopyridin-2-yl)-3-(1,1-dioxidobenzo[b]thiophen-6-yl)urea], the concentration for half-maximal inhibition (IC50) in test [1] is more than 10 µM. Also, the ΔTm at 12.5 µM in test [2] (setting [4]) is -0.19 °C.

With `CS(=O)(=O)Nc1cccc(NC(=O)Nc2ccc(C#N)cc2)c1` [Compound 276, N-(3-(3-(4-cyanophenyl)ureido)phenyl)methanesulfonamide], the ΔTm at 12.5 µM in test [2] (setting [4]) was 0.12 °C.

On to `COc1cc(NC(=O)Nc2ccc3c(c2)S(=O)(=O)C=C3)ccc1C#N` [Compound 249, 1-(4-cyano-3-methoxyphenyl)-3-(1,1-dioxidobenzo[b]thiophen-6-yl)urea], for which the IC50 in test [1] turned out to be 4.56 µM. Further, in test [2] (setting [4]), the thermal shift (ΔTm) at 12.5 µM is 1.5 °C.

Turning to `CC(C)c1cc(NC(=O)Nc2ccc3c(c2)S(=O)(=O)C=C3)ccc1C#N` [Compound 263, 1-(4-cyano-3-isopropylphenyl)-3-(1,1-dioxidobenzo[b]thiophen-6-yl)urea], the ΔTm at 12.5 µM in test [2] (setting [4]) is 1.25 °C.

As for `CN(C)CCc1cc(NC(=O)Nc2ccc(Cl)c(S(=O)(=O)C(F)(F)F)c2)ccc1C#N` [Compound 284, 1-(4-chloro-3-((trifluoromethyl)sulfonyl)phenyl)-3-(4-cyano-3-(2-(dimethylamino)ethyl)phenyl)urea], the IC50 in test [1] is more than 10 µM. In addition, in test [2], the ΔTm at 12.5 µM was determined as 0.62 °C.

Turning to `N#Cc1ccc(NC(=O)Nc2ccc3c(c2)C=CS3(=O)=O)s1` [Compound 272, 1-(5-cyanothiophen-2-yl)-3-(1,1-dioxidobenzo[b]thiophen-5-yl)urea], the ΔTm at 12.5 µM in test [2] (setting [4]) amounted to 0.86 °C.

For the compound `COc1cc(NC(=O)Nc2ccc(Cl)c(S(=O)(=O)C(F)(F)F)c2)ccc1C#N` [Compound 248, 1-(4-chloro-3-((trifluoromethyl)sulfonyl)phenyl)-3-(4-cyano-3-methoxyphenyl)urea], in test [1], the half-maximal inhibitory concentration (IC50) turned out to be 3.24 µM. Further, the ΔTm at 12.5 µM in test [2] (setting [4]) was 2.95 °C.

For the compound `N#Cc1ccc(NC(=O)Nc2ccc3c(c2)S(=O)(=O)C=C3)cc1C1CCCC1` [Compound 260, 1-(4-cyano-3-cyclopentylphenyl)-3-(1,1-dioxidobenzo[b]thiophen-6-yl)urea], the ΔTm at 12.5 µM in test [2] (setting [4]) is 0.5 °C.

With `CC(=O)N1CCc2ccc(NC(=O)Nc3ccc(C#N)cc3)cc21` [Compound 281, 1-(1-acetylindolin-6-yl)-3-(4-cyanophenyl)urea], in test [2] (setting [4]), the thermal shift (ΔTm) at 12.5 µM was -1.92 °C.

As for `N#Cc1ccc(NC(=O)Nc2cccc(C(F)(F)F)c2)cc1` [Compound 274, 1-(4-cyanophenyl)-3-(3-(trifluoromethyl)phenyl)urea], the ΔTm at 12.5 µM in test [2] (setting [4]) is 1.41 °C.

Turning to `N#Cc1ccc(NC(=O)Nc2ccc3c(c2)S(=O)(=O)C=C3)cc1C1CC1` [Compound 259, 1-(4-cyano-3-cyclopropylphenyl)-3-(1,1-dioxidobenzo[b]thiophen-6-yl)urea], the ΔTm at 12.5 µM in test [2] (setting [4]) was 1.25 °C.

As for `N#Cc1ccc(NC(=O)Nc2cccc(S(=O)(=O)C(F)(F)F)c2)cc1` [Compound 275, 1-(4-cyanophenyl)-3-(3-((trifluoromethyl)sulfonyl)phenyl)urea], in test [2] (setting [4]), the ΔTm at 12.5 µM came to 1.31 °C.

Turning to `N#Cc1ccc(NC(=O)Nc2cccc(-c3nnn[nH]3)c2)cc1` [Compound 280, 1-(3-(1H-tetrazol-5-yl)phenyl)-3-(4-cyanophenyl)urea], in test [2] (setting [4]), the ΔTm at 12.5 µM is 0.01 °C.

With `CCc1cc(NC(=O)Nc2ccc3c(c2)S(=O)(=O)C=C3)ccc1C#N` [Compound 262, 1-(4-cyano-3-ethylphenyl)-3-(1,1-dioxidobenzo[b]thiophen-6-yl)urea], the shift in melting temperature (ΔTm) at 12.5 µM in test [2] (setting [4]) was 2.47 °C.

As for `O=c1c(Nc2ccc(F)cc2)c(Nc2ccc(Cl)c(S(=O)(=O)C(F)(F)F)c2)c1=O` [Compound 0112, 3-[4-chloro-3-(trifluoromethylsulfonyl)anilino]-4-(4-fluoroanilino)cyclobut-3-ene-1,2-dione], the ΔTm at 25 µM in test [3] (Table 1) was 2.08 °C.

For the compound `O=[N+]([O-])c1cc(C(F)(F)F)cc([N+](=O)[O-])c1Oc1ccc(C2SCCS2)cc1` [Compound 0062], the ΔTm at 25 µM in test [3] (Table 1) was -6.9 °C.

In the case of `CN(C(=O)Nc1ccc(Cl)c([N+](=O)[O-])c1)c1ccc(F)cc1` [Compound 0023, 3-(4-chloro-3-nitro-phenyl)-1-(4-fluorophenyl)-1-methyl-urea], the ΔTm at 25 µM in test [3] (Table 1) came to 0.67 °C.

As to `N=C(Nc1ccc(F)cc1)Nc1ccc(Cl)c(C(F)(F)F)c1` [Compound 032, 1-[4-chloro-3-(trifluoromethyl)phenyl]-3-(4-fluorophenyl)guanidine], the ΔTm at 25 µM in test [3] (Table 3) was found to be 0.75 °C.

As for `N#Cc1ccc(NC(=O)Nc2cccc([N+](=O)[O-])c2)cc1` [Compound 273, 1-(4-cyanophenyl)-3-(3-nitrophenyl)urea], in test [2] (setting [4]), the ΔTm at 12.5 µM was 1.15 °C.

Turning to `c1ccc(-c2ccc(C(c3ccccc3)n3ccnc3)cc2)cc1` (stereo not drawn) [Compound 0081], in test [3] (Table 1), the ΔTm at 25 µM is -3.6 °C.

Regarding `Oc1ccccc1/C=N/NC(=S)Nc1cccc(Cl)c1` [Compound 0015], in test [3] (Table 1), the ΔTm at 25 µM was found to be 3.44 °C.

Regarding `O=C(Nc1cccc([N+](=O)[O-])c1)Nc1ccc(F)cc1C(=O)O` [Compound 0106, 5-fluoro-2-(3-(3-nitrophenyl)ureido)benzoic acid], the ΔTm at 25 µM in test [3] (Table 1) was found to be 3.28 °C.
